Experimental findings from US20230263825A1, “ANTI-CANCER ACTIVITY OF PERBORATE SALTS” (priority 2020, published 2023) are described below.

Holding throughout (format): cell-based
In test [1] the test system is DMS114 cells (small cell lung cancer cells). In words: Flow cytometry (Annexin V / PI) cell death pathways. The conditions noted are these: 15 μg/mL, 3 days. As for the experimental part: (§1) Cell death pathways were analysed using the Annexin V method, performed by flow cytometry. In this method, Annexin V dye is used to detect cells entering the apoptosis death pathway (Sigma-Aldrich Cat No: 11858777001), while PI (Propidium Iodide) dye is used to detect cells entering the necrosis death pathway (Sigma-Aldrich Cat No: 11858777001).
(§2) Cells were grown in complete RPMI media (completed with 10% Fetal Bovine Serum and 1% penicillin streptomycin amphotericin) in a humidified CO2 incubator (80% humidity, 5% CO2 and 37° C.). At 70-80% confluency, cells were harvested using Trypsin/EDTA solution. After 3 days of sodium perborate tetrahydrate treatment (15 μg/mL), the cells were harvested and divided into 4 equal tubes. […] Only PI dye was placed in the second tube and necrotic cells were detected. Annexin V dye was placed in the third tube and apoptotic cells were detected. In the fourth tube, two dyes were put together. […] On the other hand, over 90% of MRC5 cells were alive in the control as well as following treatment with sodium perborate tetrahydrate, with only a small percentage (<5%) of treated cells in necrosis.
For orientation: Flow cytometry measures light scatter and fluorescence of single cells or particles in a stream.

The test system of test [2] is MRC5 cells (healthy lung cells). The description is as above. To be noted: 15 μg/mL, 3 days. As for the experimental part: as §1, §2
Test [3] concerns DMS114 cells (small cell lung cancer cells). In words: MTS cytotoxicity assay. The method, then:
(§3) An MTS reduction (MTS (3-(4,5-dimethylthiazol-2-yl)-5-(3-carboxymethoxyphenyl)-2-(4-sulfophenyl)-2H-tetrazolium) assay) was conducted to analyze the cytotoxic effect of sodium perborate tetrahydrate on lung, chordoma and pancreatic cells and normal cells. In this method, cell viability is determined via the activity of mitochondrial dehydrogenase enzyme, which reduces the tetrazolium dye MTS to its […] formazan (absorbance maximum of 490 nm in PBS).
(§4) Cells were counted and seeded in 96-well culture dishes. […] The positive control comprised 20% Dimethyl Sulfoxide and the negative control comprised complete growth media. Seeding densities were as follows: DMS114: 20.000 cells/well; MRC5: 5.000 cells/well; CH22: 2.000 cells/well; JHC7, UM-Chor1, MUG-Chor1, UCH1 and NPH: 5.000 cells/well; PSN1: 10.000 cells/well; BxPC3 and ASPC: 7.500 cells/well. The effect of sodium perborate tetrahydrate on cell viability was measured as follows. The cell culture medium was discarded and 100 μl of MTS solution (10% glucose solution and 1% MTS-PMS solution in PBS) was added into each well. After 1 hour incubation in a humidified incubator, an absorbance reading was taken to determine mitochondrial dehydrogenase activity and cell survival was calculated relative to the negative control.

Test [4] relates to chordoma (CH22, JHC7, UM-Chor1, MUG-Chor1, U-CH1) cells. In words: MTS cytotoxicity assay. The method, then: as §3, §4
In general terms: Formazan colour is commonly taken as a measure of viable cells.

The test system of another test is normal cells (MRC5, NPH). In words: MTS cytotoxicity assay. As for the experimental part: as §3, §4
Test [5] concerns pancreatic cancer (PSN1, BxPC3 and ASPC) cells. Put plainly: MTS cytotoxicity assay. The method, then: as §3, §4
Test [6] has as its system PSN-1 (a pancreatic adenocarcinoma cell line). In words: MTS cytotoxicity assay, single agents and combinations. The conditions noted are these: PSN-1, alone. The method, then:
as §3, §4

In the next test the test system is DMS114 cells. In words: Video analysis of cell movement and division. To be noted: 72 hour treatment. The method, then:
(§5) The DMS114 and MRC5 cells from Example 2 were analyzed during the 3 day treatment period with sodium perborate tetrahydrate. Roughly 20 photos/hour were taken of the cells over the 72 hour (3 day) period. The resulting 1500 were merged to create a video which was used to observe the effect of sodium perborate on movement and division of DMS114 and MRC5 cells. […] FIGS. 21A and 21B show DMS114 cells at the start and end of the 72 hour treatment period. FIGS. 22A and 22B show MRC5 cells at the start and end of the 72 hour treatment period.

Another test has as its system MRC5 cells. In words: Video analysis of cell movement and division. The method, then: as §5

“Also recorded” adds a separate entry of the source.

With `O.O.O.O.[Na+].[O-]B1OO1` [sodium perborate tetrahydrate], in test [1], the cells alive result was “less than 5%”, the “cells in early apoptosis” value is recorded as roughly 80% and the “cells in late apoptosis” value is roughly 10%. In [2], the “damage to healthy cells (MRC5) relative to cancer cells (DMS114), times less” value was “approximately 5 times”. In addition, in [2] (MRC5), the cells alive result is reported as “over 90%” and the “treated cells in necrosis” value was “less than 5%”. The “cell survival of lung cancer cell lines” value in [3] is recorded as “effective in decreasing cell survival”. In addition, in test [3] (DMS114), the “EC50 (dose that kills 50% of cells)” value was determined as 15 µg/mL. In addition, the “time to maximum effect on DMS114 cells” value in [3] (FIG. 3A) was no more than 1 days. The “toxicity compared with other boron derivatives” value in test [3] (FIGS. 23A-C, same biological model) is “significantly less toxic than boric acid and sodium pentaborate pentahydrate”. In addition, the “cell survival of chordoma cell lines” value in [4] is recorded as “effective in decreasing cell survival”. Besides, the “cell survival of normal cell lines” value in the test with normal cells (MRC5, NPH) is on record as “minimal impact on the cell survival”. For the same compound, in test [5], the “cell survival of pancreatic cell lines” value is reported as “effective in decreasing cell survival”. In addition, in test [6], the EC50 concentration was 7.5 µg/mL. In the test on DMS114 cells, the “DMS114 cells whose movement was stopped” value is recorded as roughly 100%. Further, the “division and movement of healthy cells” value in the test with MRC5 cells was “slowing cell division and movement of healthy cells to some extent; also recorded: only slowed the division and movement”.
